Experimental findings from patent publication US6500815B1, “Substituted 11.beta steroid derivatives, method for preparing same and intermediates of said method, use as medicine and compositions containing them” (Aventis Pharma S.A., priority 1999, dated 2002) are described below.

Each structure is given as a SMILES string. pIC50: −log10 of the molar value.

The test addresses αvβ3 human receptor (vitronectin receptor) (Homo sapiens, UniProt P05106+P06756). Briefly: Competition binding test: displacement of the vitronectin/vitronectin receptor (αvβ3) bond. The conditions noted are these: human vitronectin coated at 2 μg/ml, 3 hours incubation at ambient temperature, 4B12-HRP antibody detection, OD 450 nm, read-out: Competition binding test Vn/VnR (αvβ3) IC50. The procedure: 1—Study by the Products of the Invention of the Bond Displacement: Vitronectin/Vitronectin Receptor (αvβ3) Protocol 96 well MaxiSorp plates are coated overnight at 4° C., with 100 μl of human vitronectin (cf Yatohgo et al. Cell., Structure and fraction 13: 281-292 (1988) at 2 μg/ml, (dilution in coating buffer).
The following day, the wells are emptied and the ligands (vitronectin) are then fixed (see fixation buffer) for 1 hour at ambient temperature under gentle agitation. The wells are washed six times (see washing buffer), then per well and in this order the following are added:
40 μl of incubation buffer, 10 μl of the diluted product to be tested, (the products are diluted in a 50/50 mixture of DMSO-H2O) 20 μl of αvβ3 human receptor (cf Pytela et al. Methods Enzymol (1987) 144:475) (dilution in incubation buffer, to be adapted according to the batch of receptor and according to the ligand).
The ligand, the αvβ3 human receptor and the products to be studied are incubated for 3 hours at ambient temperature under gentle agitation.
The wells are again washed six times, then incubated for 2 hours at ambient temperature under gentle agitation, in the presence of 100 μl of 4B12-HRP antibody, anti-receptor coupled to a peroxydase (the 4B12-HRP antibody is diluted in incubation buffer. The dilution is to be adapted according to the batch of receptor).
The wells are then washed six times before measurement of the ligand-receptor bond done by the intermediate of a peroxydase visualizing kit (TMP Microwell Peroxydase Substrate System Kirkegaard: Ref. cat. 50-76-00). This kit contains a flask A of substrate (3,3′,5,5′-tetra-methylbenzidine at 0.4 g/l) and a flask B (H2O2 at 0.02% in Citrate/Citric acid buffer). Extemporaneously, a volume of A is mixed with a volume of B, then the reaction mixture is distributed at a rate of 100 μl/wells. The enzymatic reaction develops in 12′ for Vitronectin/αvβ3, and then its evolution is stopped by the addition of 100 μl of 1M phosphoric acid.
The optical density is measured at 450 nm. […]
coating buffer: 0.05 M carbonate, NaOH pH 9.6 fixation buffer: PBS containing 0.5% of BSA (pH 7.4) washing buffer: PBS containing 0.05% of Tween 20 (pH 7.4)
Expression of the Results: the following curve is drawn: the bonding percentage of human vitronectin as a function of the logarithm of the concentration of each product tested. For each product the IC50 is determined according to the following formula:
BO=Maximum bond in the absence of any product
Bmin=Minimum bond in the presence of the highest concentration of the product.
In the case of `C[C@]12C[C@H](CCCCCC(=O)O)C3=C4CCC(=NNC(=N)N)C(Cl)=C4CC[C@H]3[C@@H]1CCC2=O` [Example 9, 3-[(Aminoiminomethyl)hydrazono]-4-chloro-17-oxo-estra-4,9-diene-11-beta-hexanoic Acid], the pIC50 is 5.71.

For the molecule `C[C@]12C[C@H](CCCCCC(=O)O)C3=C4CC/C(=N\NC(=N)N)C=C4CC[C@H]3[C@@H]1CCC2=O` [Example 5a ΔE, 3-[(Amino-iminomethyl)hydrazono]-17-oxo-estra-4,9-diene-11-beta-hexanoic Acid], the pIC50 was 7.27.

Turning to `C[C@]12C[C@H](CCCCC(=O)O)C3=C4CCC(=NNC(=N)N)C=C4CC[C@H]3[C@@H]1CCC2=O` (mixture of isomers) [Example 4, 3-[(Amino-iminomethyl)hydrazono]-17-oxoestra-4,9-dien-11-beta-pentanoic Acid], the pIC50 is 6.88.

In the case of `CC12CC(CCCCC(NC(=O)OCc3ccccc3)C(=O)O)C3=C4CCC(=NNC5=NCCN5)C=C4CCC3C1CCC2O` (stereo not drawn) [Example 3, 3-[(4,5-Dihydro-1H-imidazol-2-yl)hydrazono]-17-hydroxy-alpha.-[[(phenylmethoxy)carbonyl]amino]-estra-4,9-diene-11-beta-hexanoic Acid], the pIC50 was 7.15.

On to `C[C@]12C[C@H](CCCCCC(=O)O)C3=C4CC/C(=N/NC(=N)N)C=C4CC[C@H]3[C@@H]1CCC2=O` [Example 5b ΔZ, 3-[(Amino-iminomethyl)hydrazono]-17-oxo-estra-4,9-diene-11-beta-hexanoic Acid], for which the pIC50 is 6.43.

`C[C@]12C[C@H](CCCCCC(=O)O)C3=C4CCC(=NNC5=NCCCN5)C=C4CC[C@H]3[C@@H]1CCC2=O` (mixture of isomers) [Example 6b 60/40, 3-[(1,4,5,6-Tetrahydro-2-pyrimidinyl)-hydrazono]-17-oxo-4,9-diene-11-beta-hexanoic Acid]: the pIC50 is 7.42.

As to `C[C@]12C[C@H](CCCCCC(=O)O)C3=C4CCC(=NNC5=NCCCN5)C=C4CC[C@H]3[C@@H]1CCC2=O` (mixture of isomers) [Example 6a 90/10, 3-[(1,4,5,6-Tetrahydro-2-pyrimidinyl)-hydrazono]-17-oxo-4,9-diene-11-beta-hexanoic Acid], the pIC50 was 7.70.

With `C[C@]12C[C@H](CCCCC(NC(=O)OCc3ccccc3)C(=O)O)C3=C4CCC(=NNC5=NCCN5)C=C4CC[C@H]3[C@@H]1CCC2=O` (mixture of isomers) [Example 2, 3-[(4,5-Dihydro-1H-imidazol-2-yl)hydrazono]-17-oxo-α-[[(phenylmethoxy)carbonyl]amino]-estra-4,9-diene-11-beta-hexanoic Acid], the pIC50 is 7.52.

On to `C[C@]12C[C@H](CCCCCC(=O)O)C3=C4CCC(=NNC5=NCCN5)C=C4CC[C@H]3[C@@H]1CCC2=O` (mixture of isomers) [Example 7, 3-[(4,5-Dihydro-1H-imidazol-2-yl)-hydrazono]-17-oxo-estra-4,9-diene-11-beta-hexanoic Acid], for which the pIC50 was 7.60.

`C[C@]12C[C@H](CCCCCC(=O)O)C3=C4CCC(=NNC5=NCCN5)C(Cl)=C4CC[C@H]3[C@@H]1CCC2=O` [Example 8, 4-Chloro-3-[(4,5-dihydro-1H-imidazol-2-yl)hydrazono]-17-oxo-estra-4,9-diene-11-beta-hexanoic Acid]: the pIC50 is 7.77.
